Laboratory results from patent US20210186999A1, “METHOD FOR TREATMENT OF CANCER” (National University of Ireland Galway, priority 2017, published 2021).

Columns and labels:
[1] = tested on: TNF-α+IL-1β treated MSCs co-cultured with activated T-cells; experiment: MSC : T-cell co-culture in mixed lymphocyte reactions (MLRs), flow cytometry; format: cell-based, BALB/c; details: MSCs cultured with 100 μM inhibitor for two successive passages; MLR co-culture 96 hrs; FIGS. 3(a)-3(c)
Protocol: Materials and Methods Four female BALB/c at approximately 5 to 7 weeks were euthanized and the femur and tibia was dissected and placed in a 50 ml tube with media or PBS. Using a forceps and scissors the bones were cleaned to remove muscles and snipped on both ends to plunge out the marrow into a Petri dish containing MSC medium. A 30G needle fitted on a 1 ml syringe was used to plunge out the marrow and repeated several times till the bones appeared white. The marrow was passed through a 40 μm sieve attached to a 50 ml tube and the sieve was washed twice with medium. Medium was changed, and a cell count was performed. 10 μl cells was mixed with 40 μl PBS and 10 μl 4% acetic acid and cell count was performed. Based on the count approximately 35-50 million cells were seeded per T175 cm flask or 1 animal per flask. After isolation and culturing the MSCs were extensively characterized in vitro before and after treatment with TNF-α+IL-1β.
Sialic acid content was assayed using lectin coupled flow cytometry. Biotin labelled SNA-I and MAL-II were used to detect a 2-6 sialic acid and a 2-3 sialic acid respectively. Sialyltransferase inhibition was carried out using 100 μM of 3Fax-Peracetyl Neu5Ac. […]
MSC and TNF-α+IL-1βMSC were co-cultured at different MSC: T-cell ratios for 96 hrs. T-cell proliferation, activation, death and differentiation were determined by flow cytometry.

[2] = tested on: nitric oxide (NO), prostaglandin E2 (PGE2), IL-10 in MLR supernatant; experiment: ELISA and Griess assay of immunomodulatory molecules in supernatant of mixed lymphocyte reaction; format: cell-based, BALB/c; details: MSCs cultured with 100 μM inhibitor, FIGS. 4(a)-4(c)
Protocol: Sialic acid content was assayed using lectin coupled flow cytometry. Biotin labelled SNA-I and MAL-II were used to detect a 2-6 sialic acid and a 2-3 sialic acid respectively. Sialyltransferase inhibition was carried out using 100 μM of 3Fax-Peracetyl Neu5Ac. Cells were cultured in the presence of the inhibitor for two successive passages to ensure inhibition.
Both ELISA and the Griess assay were used to determine quantity of immunomodulatory molecules in the supernatant of mixed lymphocyte reaction experiments.

Structure (SMILES): COC(=O)C1(OC(C)=O)OC(C(OC(C)=O)C(COC(C)=O)OC(C)=O)C(NC(C)=O)C(OC(C)=O)C1F (stereo not drawn) [3Fax-Peracetyl Neu5Ac]
- proliferation of T-cells (CD4+, CD8+) in co-culture with inhibitor-treated MSCs [1]: restored proliferation of T-cells
- suppression of activated T-cells by TNF-α+IL-1β treated MSCs exposed to the sialyltransferase inhibitor [1]: not as effective at suppressing activated T-cells
- dependence of restored T-cell proliferation on NO, PGE2 and IL-10 [2]: independent of nitric oxide (NO), prostaglandin E2 (PGE2), and IL-10
